Experimental data as given in patent US20260176289A1, “SMALL MOLECULE INHIBITORS OF KRAS PROTEINS” (Merck Sharp & Dohme LLC, priority 2022, published 2026).
pIC50: −log10 of the molar value.

What was measured:
[1] = molecular target: KRAS-WT (Homo sapiens, UniProt P01116); assay: SOS-catalyzed nucleotide exchange assay (Procedure A, TR-FRET), KRAS-WT; format: biochemical; settings: nucleotide exchange, read-out: KRAS WT GNE IC50
Text: (§1) Procedure for SOS-Catalyzed Nucleotide Exchange Assay for KRAS-WT, G12C/D/V, G13D, HRAS, and NRAS (Procedure A)
(§2) Recombinant KRAS-G12C protein used in this assay has an additional triple mutation (C51S/C80L/C118S). Whereas KRAS-WT, G12D/V, G13D, HRAS and NRAS are in context of their WT protein sequence background. Specifically, the SOS-catalyzed nucleotide exchange assay utilizes a preformed TR-FRET complex containing a specific biotinylated RAS protein (KRAS-WT, G12C/V/D, G13D, HRAS, NRAS; described above) with Bodipy-GDP, and Terbium-streptavidin. Compounds are preincubated with this complex for 60 minutes. Subsequently, recombinant human SOS protein and unlabeled GTP are added to initiate the exchange reaction. Small molecule inhibitors stabilize the Bodipy-GDP complex whereas the untreated protein rapidly exchanges Bodipy-GDP for unlabeled GTP resulting in reduced TR-FRET signal.
(§3) To assemble the preformed TR-FRET complexes, each biotinylated RAS protein is diluted to 2 μM in an EDTA Buffer (20 mM HEPES pH 7.5, 50 mM sodium chloride, 10 mM EDTA, and 0.01% Tween) and incubated at room temperature for one hour. This mixture is then further diluted to 90 nM in an Assay Buffer (20 mM HEPES pH 7.5, 150 mM sodium chloride, 10 mM magnesium chloride, and 0.005% Tween) containing 15 nM of Terbium-Streptavidin (Invitrogen, catalog #PV3577) and 900 nM of Bodipy-GDP (Invitrogen, catalog #G22360) and incubated at room temperature for six hours. It should be noted that this preformed TR-FRET complex for each of the RAS protein were made ahead of time, aliquoted and stored at −80° C. until the day of the experiment.
(§4) Each test compound (10 mM stock in DMSO) is diluted in DMSO to make a final-10-point, 3-fold dilution and is acoustically dispensed into a 384-well assay plate (Corning, catalog #3820) using an Echo 550 (Labcyte). Each well of the assay plate receives 3 μL of a specific 3×RAS preformed TR-FRET complex and 3 μL of Assay Buffer and is incubated at room temperature for 60 minutes (preincubation time). Each well then receives 3 μL of 3×recombinant human SOS protein and GTP (Sigma, G8877) in Assay Buffer and is incubated at room temperature for 30 minutes (G13D), 60 minutes (KRAS WT/G12C/D, H/NRAS) or 90 minutes for G12V. The final reaction in each well of 9 μL consists of 3 mM GTP, specific Ras and SOS proteins in the following concentrations: KRAS-G12C/SOS=3 nM/40 nM, KRAS-WT and G12D/SOS=1 nM/40 nM, KRAS-G12V/SOS=1.25 nM/160 nM. KRAS-G13D/SOS=1.25 nM/0 nM, HRAS and NRAS=1.25 nM/40 nM.
(§5) The time-resolved fluorescence resonance energy transfer (TR-FRET) signal is measured on an Envision (PerkinElmer) plate reader: Excitation filter=340 nm; emission 1=495 nm; emission2=520 nm; dichroic mirror=D400/D505; delay time=[…]. The signal of each well is determined as the ratio of the emission at 520 nm to that at 495 nm. Percent effect of each well is determined after normalization to control wells containing DMSO (no effect) or a saturating concentration of inhibitor (max effect). The apparent effect as a function of compound concentration is fit to a four-parameter logistic equation.

[2] = molecular target: KRAS-G12D (Homo sapiens, UniProt P01116, G12D); assay: SOS-catalyzed nucleotide exchange assay (Procedure A, TR-FRET), KRAS-G12D; format: biochemical; settings: nucleotide exchange, read-out: KRAS G12D GNE IC50
Chain of KRAS-G12D (P01116 with tags, fused parts or gaps isoform P01116-2 G12D): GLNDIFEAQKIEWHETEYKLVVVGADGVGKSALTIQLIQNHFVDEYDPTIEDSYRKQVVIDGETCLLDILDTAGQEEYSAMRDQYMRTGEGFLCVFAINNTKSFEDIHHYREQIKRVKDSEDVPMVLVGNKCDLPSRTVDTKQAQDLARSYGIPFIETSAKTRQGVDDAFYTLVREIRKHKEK
Text: as §1, §2, §3, §4, §5

[3] = molecular target: KRAS-G12V (Homo sapiens, UniProt P01116, G12V); assay: SOS-catalyzed nucleotide exchange assay (Procedure A, TR-FRET), KRAS-G12V; format: biochemical; settings: nucleotide exchange, read-out: KRAS G12V GNE IC50
Chain of KRAS-G12V (P01116 with tags, fused parts or gaps isoform P01116-2 G12V): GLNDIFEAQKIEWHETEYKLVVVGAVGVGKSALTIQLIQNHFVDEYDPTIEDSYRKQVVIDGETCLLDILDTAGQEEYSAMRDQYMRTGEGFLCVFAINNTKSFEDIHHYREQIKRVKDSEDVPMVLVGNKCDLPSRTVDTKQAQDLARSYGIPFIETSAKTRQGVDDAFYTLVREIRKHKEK
Text: as §1, §2, §3, §4, §5

[4] = test system: AsPC-1 cells; assay: Cellular phospho-ERK assay, AsPC-1 cells (homozygous KRAS-G12D); format: cell-based; settings: Homo sapiens, ASPC1, 2 h, KRAS-G12D, 2 hours, read-out: AsPC1 pERK IC50
Protocol: Procedure for Cellular Phospho-ERK Assay in KRAS Wild Type and Mutant (G12D, G12V) Cell Lines
MKN-1 cells (JCRB JCRB0252) containing amplified wild-type KRAS, were cultured in growth medium that contains RPMI 1640-GlutaMAX™-I (ThermoFisher Scientific 61870) containing 10% heat inactivated fetal bovine serum (ThermoFisher Scientific 10091148), 1 mM sodium pyruvate and 10 mM HEPES. PANC08.13 cells (ATCC® CRL-2551™), containing homozygous KRAS-G12D activating mutation, were cultured in growth medium made of RPMI1640-GlutaMAX™-I (ThermoFisher Scientific 61870) containing 15% heat inactivated fetal bovine serum (ThermoFisher Scientific 10091148)). AsPC-1 cells (ATCC® CRL-1682™), containing homozygous KRAS-G12D activating mutation, were cultured in T150 flask in growth medium (RPMI medium 1640-GlutaMAX™-I (ThermoFisher Scientific 61870) containing 10% fetal bovine serum (ThermoFisher Scientific 10091148)). SW620 cells (ATCC® […]), containing homozygous KRAS-G12V activating mutation, were cultured in growth medium that contains RPMI 1640-GlutaMAX™-I (ThermoFisher Scientific 61870) containing 10% heat inactivated fetal bovine serum (ThermoFisher Scientific 10091148).
Cells for the assay were harvested in growth medium after TrypLE (ThermoFisher scientific 12604021) digestion and were seeded in a 384-well collagen coated cell culture plate (Corning 356702) at a density of 10,000-15,000 cells/20 μL/well, and incubated at 37° C., 5% CO2 overnight. The compound (with 10 mM stock concentration) dose-response titrations were prepared [30 μM final ERK detection assay concentration and 1:3 dilutions, 10-point dose response] and appropriate amounts (270 nL) of test compounds were dispensed in a 384-well intermediate plate using an Echo 550 liquid handler. 30 μL/well of RPMI medium 1640-GlutaMAX™—I was added to the intermediate plate and the contents of the intermediate plate (10 μL/well) were then transferred to the 384-well collagen coated cell culture plate, which was incubated at 37° C., 5% CO2 for 2 hours. After removal of medium from the collagen coated cell culture plate, cells were lysed in lysis buffer from Alpha SureFire® Ultra™ Multiplex p-ERK and total ERK assay kit (PerkinElmer MPSU-PTERK) containing Halt™ Protease and Phosphatase inhibitor cocktail (ThermoFisher Scientific 78446) at room temperature with constant shaking at 300 rpm for 30 minutes. The cell lysates were then transferred to an OptiPlate-384 plate (PerkinElmer 6005620), and the phosphorylation of ERK (p-ERK) and total ERK levels were detected by Alpha SureFire® Ultra™ Multiplex p-EEK kit and total ERK assay kit (PerkinElmer MPSU-PTERK) following the manufacturer's protocol. Assay plates were read on a En Vision Multimode Plate Reader (PerkinElmer), and the ratio of p-ERK vs. total ERK in each well was used as the final readout. Dose response curves were analyzed using a 4-parameter logistic model to calculate IC50 values using Spotfire software.

Chain of KRAS-WT (P01116 with tags, fused parts or gaps isoform P01116-2): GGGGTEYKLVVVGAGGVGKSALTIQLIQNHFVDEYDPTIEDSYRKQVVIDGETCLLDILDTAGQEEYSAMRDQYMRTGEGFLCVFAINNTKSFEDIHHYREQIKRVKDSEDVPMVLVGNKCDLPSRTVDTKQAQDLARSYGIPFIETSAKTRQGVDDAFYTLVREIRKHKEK

Compound | pIC50 [1] | pIC50 [2] | pIC50 [3] | pIC50 [4]
CNc1cc2c(sc3nc(OC[C@@]45CCCN4C[C@H](F)C5)nc(N4CCOC[C@@](C)(O)C4)c32)c(-c2c(C(F)(F)F)c(C)cc3[nH]ncc23)n1 [Ex-30, (6S)-4-(2-(((2R,7aS)-2-fluorotetrahydro-1H-pyrrolizin-7a(5H)-yl)methoxy)-8-(6-methyl-5-(trifluoromethyl)-1H-indazol-4-yl)-6-(methylamino)pyrido[4′,3′:4,5]thieno[2,3-d]pyrimidin-4-yl)-6-methyl-1,4-oxazepan-6-ol] | 6.36 | 6.80 | 6.71 | 6.14
Cc1cc2[nH]ncc2c(-c2nc(C#N)cc3c2sc2nc(OC[C@@]45CCCN4C[C@H](F)C5)nc(N4CCOC[C@@](C)(O)C4)c23)c1C(F)(F)F [Ex-31, 2-(((2R,7aS)-2-fluorotetrahydro-1H-pyrrolizin-7a(5H)-yl)methoxy)-4-((S)-6-hydroxy-6-methyl-1,4-oxazepan-4-yl)-8-(6-methyl-5-(trifluoromethyl)-1H-indazol-4-yl)pyrido[4′,3′:4,5]thieno[2,3-d]pyrimidine-6-carbonitrile] | 6.24 | 6.52 | 6.66 | 5.88
Cc1cc2[nH]ncc2c(-c2nccc3c2sc2nc(OC[C@@]45CCCN4C[C@H](F)C5)nc(N4CCOC[C@@](C)(O)C4)c23)c1C(C)(F)F [Ex-41, (6S)-4-(8-(5-(1,1-difluoroethyl)-6-methyl-1H-indazol-4-yl)-2-(((2R,7aS)-2-fluorotetrahydro-1H-pyrrolizin-7a(5H)-yl)methoxy)pyrido[4′,3′:4,5]thi-eno[2,3-d]pyrimidin-4-yl)-6-methyl-1,4-oxazepan-6-ol] | 6.59 | 6.92 | 6.78 | 6.20
C[C@@]1(O)COCCN(c2nc(OC[C@@]34CCCN3C[C@H](F)C4)nc3sc4c(-c5c(C67CC(C6)C7)ccc6[nH]ncc56)nccc4c23)C1 [Ex-42, (6S)-4-(8-(5-(bicyclo[1.1.1]pentan-1-yl)-1H-indazol-4-yl)-2-(((2R,7aS)-2-fluorotetrahydro-1H-pyrrolizin-7a(5H)-yl)methoxy)pyrido[4′,3′:4,5]thi-eno[2,3-d]pyrimidin-4-yl)-6-methyl-1,4-oxazepan-6-ol] | 6.54 | 6.87 | 6.84 | 5.86
Cc1cc2[nH]ncc2c(-c2nccc3c2sc2nc(OC[C@@]45CCCN4C[C@H](F)C5)nc(N4CCOC[C@@](C)(O)C4)c23)c1SC(F)(F)F [Ex-45, (6S)-4-(2-(((2R,7aS)-2-fluorotetrahydro-1H-pyrrolizin-7a(5H)-yl)methoxy)-8-(6-methyl-5-((trifluoromethyl)thio)-1H-indazol-4-yl)pyrido[4′,3′:4,5]thieno [2,3-d]pyrimidin-4-yl)-6-methyl-1,4-oxazepan-6-ol] | 6.43 | 6.78 | 6.82 | 5.96
Cn1ccc2cc3[nH]ncc3c(-c3nccc4c3sc3nc(OC[C@@]56CCCN5C[C@H](F)C6)nc(N5CCOC[C@@](C)(O)C5)c34)c21 [Ex-46] | 6.78 | 7.14 | 6.80 | 6.03
COC(=O)c1cc2[nH]ncc2c(-c2nccc3c2sc2nc(OC[C@@]45CCCN4C[C@H](F)C5)nc(N4CCOC[C@@](C)(O)C4)c23)c1C1CC1 [Ex-49, Methyl 5-cyclopropyl-4-(2-(((2R,7aS)-2-fluorotetrahydro-1H-pyrrolizin-7a(5H)-yl)methoxy)-4-((S)-6-hydroxy-6-methyl-1,4-oxazepan-4-yl)pyrido[4′,3′:4,5]thieno [2,3-d]pyrimidin-8-yl)-1H-indazole-6-carboxylate] | 7.13 | 7.40 | 7.23 | 5.71
COCc1cc2[nH]ncc2c(-c2nccc3c2sc2nc(OC[C@@]45CCCN4C[C@H](F)C5)nc(N4CCOC[C@@](C)(O)C4)c23)c1C1CC1 [Ex-50, (6S)-4-(8-(5-cyclopropyl-6-(methoxymethyl)-1H-indazol-4-yl)-2-(((2R,7aS)-2-fluorotetrahydro-1H-pyrrolizin-7a(5H)-yl)methoxy)pyrido[4′,3′:4,5]thi-eno[2,3-d]pyrimidin-4-yl)-6-methyl-1,4-oxazepan-6-ol] | 6.49 | 6.62 | 6.54 | 5.40
C[C@@]1(O)COCCN(c2nc(OC[C@@]34CCCN3C[C@H](F)C4)nc3sc4c(-c5c(C6CC6)c(C#N)cc6[nH]ncc56)nccc4c23)C1 [Ex-51, 5-cyclopropy1-4-(2-(((2R,7aS)-2-fluorotetrahydro-1H-pyrrolizin-7a(5H)-yl)methoxy)-4-((S)-6-hydroxy-6-methyl-1,4-oxazepan-4-yl)pyrido[4′,3′:4,5]thieno [2,3-d]pyrimidin-8-yl)-1H-indazole-6-carbonitrile] | 6.63 | 6.94 | 6.85 | 5.85
C[C@@]1(O)COCCN(c2nc(OC[C@@]34CCCN3C[C@H](F)C4)nc3sc4c(-c5c(C6(F)CC6)c(F)cc6[nH]ncc56)nccc4c23)C1 [Ex-53, (6S)-4-(8-(6-fluoro-5-(1-fluorocyclopropyl)-1H-indazol-4-yl)-2-(((2R,7aS)-2-fluorotetrahydro-1H-pyrrolizin-7a(5H)-yl)methoxy)pyrido[4′,3′:4,5]thi-eno[2,3-d]pyrimidin-4-yl)-6-methyl-1,4-oxazepan-6-ol] | 7.04 | 7.58 | 7.33 | 6.33
